Experimental data as given in patent US20150110716A1, “METHODS OF USING SPECT/CT ANALYSIS FOR STAGING CANCER” (Molecular Insight Pharmaceuticals, Inc., priority 2013, published 2015).

How the values were obtained:
[1] = tested on: primary prostate cancer within the prostate gland; assay: Phase 2 study: SPECT/CT detection of primary prostate cancer vs histopathology; assay type: in vivo, human
Experimental: (§1) A phase-2 study to image men with high-risk prostate cancer scheduled for radical prostatectomy (RP) and Extended Pelvic Lymph Node Dissection (EPLND) was performed using a compound according to Formula (1), as an illustrative radioimaging agent. The primary objective of the study was to assess the safety and the ability of the Formula (1) compound to detect prostate cancer within the prostate gland. Secondary objectives include (i) assess the ability of the Formula (1) compound to detect the extent and location of prostate cancer within the prostate gland, (2) assess the ability of the Formula (1) compound to detect metastatic PCa within pelvic lymph nodes and to further detect the specific location of metastatic PCa within anatomic pelvic lymph node regions, (3) compare the performance of the Formula (1) compound as a prostate cancer imaging agent to MRI and compare the ability of the Formula (1) compound to detect the specific location of metastatic PCa within pelvic lymph nodes to the ability of MRI for detecting the specific location of metastatic PCa within pelvic lymph nodes.
A Phase-2 multi-center, multi-reader, open-label trial, to assess the performance characteristics of the Formula (1) compound as an imaging agent was measured by true-positive fraction (TPF equivalent to sensitivity) and false-positive fraction (FPF, equivalent to 1-specificity). The “truth standard” for determining true-positive cases and false-positive cases were histopathology results obtained subsequent to RP and EPLND. The performance of the Formula (1) compound as an imaging agent was compared to MRI by calculating (1) the difference in correctly identified positive cases by each imaging method that also are positive by histopathology subsequent to RP and EPLND (TPF); and (2), the difference in incorrectly identified […] cases by each imaging method, that also are […] by histopathology subsequent to RP and EPLND (FPF).
Newly-diagnosed prostate cancer patients at high-risk for metastatic disease who were scheduled for RP with EPLND were enrolled in the study. […] Subjects will receive a single intravenous dose of the Formula (1) compound (study drug) followed by both whole-body planar and SPECT/CT imaging 3-6 hours after injection. As standard of care, subjects underwent RP with EPLND surgery and histological assessment of specimens no more than 3 weeks after study drug dosing. Images of the patients were evaluated for visible uptake of the Formula (1) compound within the prostate gland and by regional assessment of nodal disease. These findings were compared against histopathology results used as the truth standard.
Efficacy analyses were conducted utilizing histopathology results subsequent to radical prostatectomy and extended pelvic lymph node dissection as the truth-standard for determination of positive and negative cases. Primary efficacy analyses estimated the ability of the compound represented by Formula (1) to detect cancer in prostate glands that were confirmed as harboring tumor based on a biopsy. The primary efficacy analysis evaluated sensitivity and specificity of the compound represented by Formula (1) using 80% power to establish the lower bound of one-sided 95% confidence intervals. All subjects who receive the Formula (1) and complete surgery will be included in the primary efficacy analysis.
Patients (pts) with biopsy confirmed adenocarcinoma of the prostate scheduled for RP with extended pelvic lymph node dissection (EPLND) at high risk for disease outside of the prostate gland were eligible. High risk patients were stage of T3c or […] or a nomogram score ≧130 (Godot′ et al., Eur. Urol., (2011), p 195-201). Within 30 days of screening, the patients required a bone scan and pelvic MRI. After enrollment, the patients received a compound represented by Formula (1) at a dose of 20 mCi±3 mCi followed by whole-body planar and SPECT/CT imaging 3 to 6 hrs later. Patients then underwent RP with EPLND within 21 days. […]

[2] = tested on: metastatic prostate cancer in pelvic lymph nodes; assay: Phase 2 study: SPECT/CT detection of pelvic lymph node involvement vs histopathology; assay type: in vivo, human
Experimental: as §1
A Phase-2 multi-center, multi-reader, open-label trial, to assess the performance characteristics of the Formula (1) compound as an imaging agent was measured by true-positive fraction (TPF equivalent to sensitivity) and false-positive fraction (FPF, equivalent to 1-specificity). The “truth standard” for determining true-positive cases and false-positive cases were histopathology results obtained subsequent to RP and EPLND. […]
Newly-diagnosed prostate cancer patients at high-risk for metastatic disease who were scheduled for RP with EPLND were enrolled in the study. […] Images of the patients were evaluated for visible uptake of the Formula (1) compound within the prostate gland and by regional assessment of nodal disease. […]
Patients (pts) with biopsy confirmed adenocarcinoma of the prostate scheduled for RP with extended pelvic lymph node dissection (EPLND) at high risk for disease outside of the prostate gland were eligible. […] SPECT/CT images were evaluated centrally by 3 readers blinded to clinical information and compared to on-site pathology assessments using a common scoring template, for instance, a Lesion Visualization Grading Score. […]
Three nuclear medicine experts and an MRI expert, blinded to clinical information, assessed ^99mTc-trofolastat uptake and morphologic features respectively in the prostate gland and lymph nodes. The findings were recorded using common anatomic template consisting of six prostate segments and pelvic lymph node regions. […]

[3] = Patient/Gland Level (n = 54), interim, fraction
[4] = Patient/Gland, matched vs MRI (n = 47), fraction
[5] = interim, n=54, primary prostate cancer

With “(OC-6-33)-tricarbonyl[N^2-{[(1S)-1,3-dicarboxypropyl]amino]carbamoyl}-L-γ-glutamyl-N^6,N^6-bis[(1-{2-[bis(carboxymethyl)amino]-2-oxoethyl]-1H-imidazol-2-yl-κN^3]methyl]-L-lysine-κN^6](^99mTc)(+)chloride [Formula (1)]” the Accuracy [1, 3] was 0.94, the NPV [1, 3] was 0.40 and the PPV [1, 3] was 1.00. It also gave a Sensitivity [1, 3] of 0.84, a Specificity [1, 3] of 1.00 and an Accuracy [1, 4] of 0.94. The NPV [1, 4] was 0.40, the PPV [1, 4] was 1.00 and the Sensitivity [1, 4] was 0.93. For the same substance, the Specificity [1, 4] was 1.00, the “patients in whom presence or absence of primary prostate cancer was correctly identified” value ([1]; interim, n=54, majority of SPECT/CT readers, histopathology as truth standard) was 94% and the Sensitivity [1, 5] was 94%. For the same substance, the Specificity [1, 5] was 100%, the “matched patients in whom primary disease was correctly characterized” value ([1]; n=47 matched with MRI) was 94% and the “more patients correctly characterized than by the MRI reader” value ([1]; n=47 matched with MRI) was 13%. For the same substance, the “scan-detected lymph node involvement confirmed by histopathology” value ([2]; 8/16) was 50%, the “patients with lymph node involvement detected by scan” value ([2]; 16/53 patients) was 30% and the “patients in whom lymph node involvement was accurately characterized” value ([2]; 41/53 patients) was 77%. For the same substance, the “size of positive lymph nodes detected” value ([2]; patients positive by scan with matching positive histopathology) was 2 mm.
